Measurements published in BigSolDB 2.1.

CC(=O)OC(OC(C)=O)c1ccc([N+](=O)[O-])o1
solubility (mole fraction)
Settings	in 1,4-dioxane	in DMF	in THF	in acetone	in acetonitrile	in ethyl acetate	in methanol	in n-hexane	in n-propanol	in toluene
278.15 K	0.0821	0.161	0.121	0.0864	0.0016	0.002	0.0778	0.0285	0.0435	0.141
283.15 K	0.0954	0.174	0.146	0.108	0.002	0.0031	0.0834	0.0358	0.0474	0.154
288.15 K	0.109	0.192	0.181	0.127	0.0028	0.0048	0.0898	0.0458	0.0513	0.171
293.15 K	0.131	0.209	0.217	0.156	0.0038	0.0068	0.0995	0.0562	0.0571	0.192
298.15 K	0.146	0.227	0.256	0.182	0.0052	0.0101	0.108	0.0721	0.0625	0.211
303.15 K	0.166	0.248	0.298	0.214	0.0069	0.0143	0.118	0.0883	0.0687	0.239
308.15 K	0.188	0.271	0.341	0.249	0.0093	0.02	0.129	0.109	0.0761	0.267
313.15 K	0.214	0.296	0.385	0.291	0.0126	0.0283	0.143	0.133	0.0843	0.293
318.15 K	0.237	0.319	0.434	0.33	0.0167	0.0405	0.155	0.162	0.0924	0.33
323.15 K	0.267	0.351	0.488	0.379	0.0215	0.0548	0.173	0.196	0.104	0.373
